Molecular target: Transient receptor potential cation channel subfamily A member 1 (Homo sapiens, UniProt O75762)
Test: FLIPR Assay: The IC50 (effective concentration) of compounds on the human and rat TRPA1 channels were determined using a FLIPR Tetra instrument. CHO cells expressing TRPA1 were plated into 384-well plates, incubated overnight at 37° C., and loaded with BD calcium indicator dye for 1 hr at 37° C. followed by 15 minutes at room temperature. The assay buffer was Hank's Balanced Salt Solution (HBSS) containing 20 mM HEPES (pH readjusted to 7.4) along with 0.02% BSA.Following dye load and plate cool down, compounds were added to the cells using FLIPR Tetra. Plates were then incubated with compounds for 20 minutes at room temperature prior to adding agonist. […] Fixing the Hill coefficient will generally reduce variability of the IC50 determination. The IC50 results were individually examined to make sure the MIN and MAX points were set correctly prior to validation of the results.

Transient receptor potential cation channel subfamily A member 1, sequence (O75762 whole entry): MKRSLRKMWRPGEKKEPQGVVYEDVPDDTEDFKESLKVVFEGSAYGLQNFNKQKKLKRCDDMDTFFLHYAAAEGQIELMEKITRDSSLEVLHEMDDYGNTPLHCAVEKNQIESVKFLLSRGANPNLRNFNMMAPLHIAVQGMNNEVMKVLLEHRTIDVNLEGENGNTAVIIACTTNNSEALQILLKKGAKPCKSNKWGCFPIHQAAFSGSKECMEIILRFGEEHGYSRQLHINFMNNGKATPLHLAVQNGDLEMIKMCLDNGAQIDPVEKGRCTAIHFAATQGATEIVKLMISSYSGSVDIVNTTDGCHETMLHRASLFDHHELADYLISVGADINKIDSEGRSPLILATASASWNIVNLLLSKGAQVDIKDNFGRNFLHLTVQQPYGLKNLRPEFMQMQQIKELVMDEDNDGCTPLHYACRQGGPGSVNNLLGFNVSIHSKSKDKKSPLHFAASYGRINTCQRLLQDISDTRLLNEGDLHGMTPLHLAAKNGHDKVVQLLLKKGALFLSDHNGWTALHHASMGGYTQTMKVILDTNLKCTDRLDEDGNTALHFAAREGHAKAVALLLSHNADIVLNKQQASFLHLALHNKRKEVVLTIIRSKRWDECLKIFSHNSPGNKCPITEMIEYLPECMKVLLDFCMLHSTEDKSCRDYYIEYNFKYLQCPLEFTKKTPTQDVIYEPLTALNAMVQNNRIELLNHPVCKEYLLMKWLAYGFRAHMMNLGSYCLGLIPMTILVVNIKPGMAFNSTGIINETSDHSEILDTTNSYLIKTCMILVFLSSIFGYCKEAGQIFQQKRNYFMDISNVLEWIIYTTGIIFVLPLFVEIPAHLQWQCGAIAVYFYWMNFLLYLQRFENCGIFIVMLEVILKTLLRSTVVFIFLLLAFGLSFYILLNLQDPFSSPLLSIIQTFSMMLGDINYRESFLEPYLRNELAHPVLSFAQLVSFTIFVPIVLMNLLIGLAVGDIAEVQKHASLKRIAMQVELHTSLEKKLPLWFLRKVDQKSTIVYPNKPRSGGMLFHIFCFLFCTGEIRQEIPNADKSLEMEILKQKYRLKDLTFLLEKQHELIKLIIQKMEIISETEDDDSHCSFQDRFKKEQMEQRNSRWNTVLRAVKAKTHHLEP

IC50: 100 nM
SMILES: Cn1nc(C#N)c2ncn(Cc3nn(CCc4ccc(Cl)cc4)c(=O)o3)c(=O)c21
